{"source": "patent US11186547B2", "about": "“High-purity quinoline derivative and method for manufacturing same” (Eisai R&D Management Co., Ltd., priority 2014, dated 2021)", "key": {"[1]": {"experiment": "solubility in organic solvents", "format": "physicochemical", "description": "(§1) The compound (A-1) is the starting material of the step A, but its solubility in organic solvents is low."}, "[2]": {"experiment": "genotoxicity, consideration of the present inventors", "settings": "according to the consideration of the present inventors", "description": "as §1"}, "[3]": {"settings": "Workplace Safety Site, Public Notice No. 166 of Mar. 27, 2012; cited from earlier work"}, "[4]": {"experiment": "decomposition on heating after dissolution in a solvent", "format": "physicochemical", "settings": "heated after dissolved in a solvent"}}, "data": [{"smiles": "COc1cc2nccc(Cl)c2cc1C(N)=O", "note": "[compound (A-1), 4-chloro-7-methoxy-quinoline-6-carboxamide]", "values": [{"measurement": "solubility in organic solvents", "setting": "[1]", "result": "low"}, {"measurement": "genotoxicity", "setting": "[2]", "result": "possibility that the compound (A-1) exhibits genotoxicity"}]}, {"smiles": "COc1cc2nccc(Oc3ccc(N)c(Cl)c3)c2cc1C(N)=O", "note": "[compound (I), 4-(4-Amino-3-chlorophenoxy)-7-methoxy-quinoline-6-carboxamide]", "values": [{"measurement": "mutagenicity", "setting": "[3]", "result": "strong mutagenicity was recognized"}]}, {"smiles": "COc1cc2nccc(Oc3ccc(NC(=O)NC4CC4)c(Cl)c3)c2cc1C(N)=O", "note": "[methanesulfonate of the compound (IV), 4-[3-chloro-4-(cyclopropylaminocarbonyl)aminophenoxy]-7-methoxy-6-quinoline-carboxamide Methanesulfonate]", "values": [{"measurement": "decomposition product formed", "setting": "[4]", "result": "the compound (I) is formed as a decomposition product"}]}]}
